# Data from article PMC7097682, “Safety and Pharmacokinetics of CXCR4 Peptide Antagonist, LY2510924, in Combination with Durvalumab in Advanced Refractory Solid Tumors” (Journal of Pancreatic Cancer, 2020).
# Where a SMILES comes first, the peptide text is derived from it. Bridges are numbered along the chain shown (N, C = ends). [ ]: non-standard residue; d: D form. 2Nal = N[C@@H](Cc1ccc2ccccc2c1)C(=O)O; Lys(iPr) = CC(C)NCCCC[C@H](N)C(=O)O
# Experiments:
# patients = tested on: patients; design: method as in PMID 24727324; conditions: 30 mg/day SC, monotherapy; cited from earlier work
# cancer xenograft models = conditions: cell lines that express high levels of CXCR4; cited from earlier work
# [1] = tested on: syngeneic squamous cell carcinoma model; conditions: single agent or combination; no reference printed for the sentence; cited from earlier work
# clinical = conditions: human, in vivo, sc, t1/2
# Procedure: (§1) Blood samples were drawn from all patients for the assessment of LY2510924 in plasma and durvalumab concentrations in serum at prespecified time points. The PK of LY2510924 was assessed through intensive sampling, and the PK parameter estimates were calculated by standard noncompartmental methods of analysis. PK data for durvalumab were summarized by sampling time points, and a formal noncompartmental analysis was not conducted. Samples were analyzed using a validated liquid chromatography with tandem mass spectrometry. Summary statistics was tabulated for the PK parameters of LY2510924 and durvalumab by dose and study day.
# [2] = LY2510924 pharmacokinetics in plasma, noncompartmental analysis; conditions: for AUC(0-inf) / Cmax: n = 3, geometric mean (CV%)
# Procedure: as §1
# [3] = Durvalumab serum concentrations by sampling time point; type: in vivo, human
# Procedure: as §1
# pancreatic cancer model = conditions: added to anti-PD-L1 monoclonal antibody regimen; cited from earlier work
# [4] = human, plasma, sc, Day 15, 20 mg/day SC
# [5] = human, plasma, sc, Day 15, 30 mg/day SC
compound,measurement,setting,value
CC(C)NCCCC[C@H](NC(=O)[C@H]1CCC(=O)N[C@@H](Cc2ccccc2)C(=O)N[C@@H](Cc2ccc(O)cc2)C(=O)N[C@@H](CCCCNC(C)C)C(=O)N[C@H](CCCNC(=N)N)C(=O)N[C@@H](Cc2ccc3ccccc3c2)C(=O)NCC(=O)N1)C(N)=O [LY2510924] (FY[Lys(iPr)][dR][2Nal]G[dE][Lys(iPr)]-NH2; lactam N-7),"patients with dose-limiting toxicity (grade 3 increase in ANC >25,000 cells/μL for >5 days)",patients,two
same,tumor growth and metastasis,cancer xenograft models,dose-dependent inhibition
same,antitumor activity,[1],minimal activity
same,half-life,clinical,5.11 h
same,PK variability on AUC,"[2]; 20, 30 and 40 mg daily SC",69%
same,PK variability on Cmax,"[2]; 20, 30 and 40 mg daily SC",~60%
same,mean apparent volume of distribution,"[2]; 20, 30 and 40 mg daily SC, all nine patients",59 L
same,CL/F,"[2]; human, plasma, sc, 40 mg, mean apparent clearance, 20, 30 and 40 mg daily SC, all nine patients",117 mL/min
same,AUC(0-inf),[2]; [4],1960 ng·h/mL
same,AUC(0-inf),[2]; [5],4320 ng·h/mL
same,Cmax,"[2]; human, plasma, sc, Day 1, 20 mg/day SC, with durvalumab",747 ng/mL
same,Cmax,"[2]; human, plasma, sc, Day 1, 30 mg/day SC, with durvalumab",682 ng/mL
same,Cmax,"[2]; human, plasma, sc, Day 1, 40 mg/day SC, with durvalumab",1860 ng/mL
same,Cmax,[2]; [4],367 ng/mL
same,Cmax,[2]; [5],847 ng/mL
same,Cmax,"[2]; human, plasma, sc, Day 15, 40 mg/day SC",1680 ng/mL
"durvalumab: selective, high-affinity, human immunoglobulin G1 monoclonal antibody that blocks PD-L1 binding to PD-1 and CD80","peak concentration, geometric mean","[3]; week 0, 1500 mg Q4W IV infusion over 60 min, n = 8, %CV 33.2%",418 µg/mL
same,"trough concentration, geometric mean","[3]; week 4, 1500 mg Q4W IV, n = 8, %CV 50.3%",106 µg/mL
same,"trough concentration, geometric mean","[3]; week 8, 1500 mg Q4W IV, n = 4, %CV 58.4%",133 µg/mL
same,"peak concentration, geometric mean","[3]; week 12, 1500 mg Q4W IV, n = 4, %CV 30.8%",549 µg/mL
same,"trough concentration, geometric mean","[3]; week 12, 1500 mg Q4W IV, n = 4, %CV 46.8%",126 µg/mL
same,"trough concentration, geometric mean","[3]; week 20, 1500 mg Q4W IV, n = 1",74.9 µg/mL
c1cc(CN2CCCNCCNCCCNCC2)ccc1CN1CCCNCCNCCCNCC1 [AMD3100],effect on T cells and antitumor efficacy of anti-PD-L1 monoclonal antibody,pancreatic cancer model,"T cell redistribution and rapid accumulation near tumors, enhancing the antitumor efficacy"
